# Like-named read-outs stand apart in the source and are kept apart here.
# Key:
# Format in all cases: in vivo
# [1] = test system: Verconica persica (VERPE); assay: Pre-emergence herbicidal action against VERPE; settings: dosage 320 g/ha
# How it was run: (§1)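 Herbicide applied to soil before seedling emergence, at 600 l/ha spray volume with 0.5% additive and rates up to 320 g/ha. Evaluation: visual percentage effect, about 3 weeks later, greenhouse-grown pots compared with untreated ones.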
# Brassica napus (BRSNW) [2] = settings: crop plant compatibility, in comparison to untreated controls
# How it was run: (§2)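 Scoring: visual, % of untreated control, about 3 weeks after a pre-emergence application to the soil surface. Application used WP or EC formulations diluted in water with 0.5% additive at 600 l/ha; dosage levels are marked by suffixes a, b and c.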
# Glycine max (GLXMA) [3] = settings: pre-emergence, crop plant compatibility, in comparison to untreated controls
# How it was run: as §2
# Oryza sativa (ORYSA) [4] = settings: pre-emergence, crop plant compatibility, in comparison to untreated controls
# How it was run: as §2
# [5] = test system: Triticum aestivum (TRZAS); settings: pre-emergence, crop plant compatibility, in comparison to untreated controls
# How it was run: as §2
# Zea mays (ZEAMX) [6] = settings: pre-emergence, crop plant compatibility, in comparison to untreated controls
# How it was run: as §2
# Oryza sativa (ORYSA) [7] = settings: crop plant compatibility
# How it was run: (§3)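 Percent effect on the crop was judged by eye against untreated controls, where 0% means like control and 100% means dead plants. Plants had been sprayed post-emergence at the one-leaf stage and then kept under optimum greenhouse conditions for about 3 weeks.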
# [8] = test system: Triticum aestivum (TRZAS); settings: crop plant compatibility, effect vs untreated controls
# How it was run: as §3
# Zea mays (ZEAMX) [9] = settings: for Post-emergence action against ZEAMX in %: crop plant compatibility, effect vs untreated controls
# How it was run: as §3
# Glycine max (GLXMA) [10] = assay: Post-emergence crop plant compatibility, GLXMA; settings: for Post-emergence action against GLXMA in %: effect in comparison to untreated controls
# How it was run: as §3
# Brassica napus (BRSNW) [11] = assay: Post-emergence crop plant compatibility, BRSNW; settings: effect in comparison to untreated controls
# Experimental: Seeds of monocotyledonous and dicotyledonous weeds and crop plants are placed in sandy loam in plastic or organic planting pots, covered with soil and cultivated in a greenhouse under controlled growth conditions. 2 to 3 weeks after sowing, the test plants are treated at the one-leaf stage. The compounds of the invention, formulated in the form of wettable powders (WP) or as emulsion concentrates (EC), are then sprayed onto the green parts of the plants as aqueous suspension or emulsion with addition of 0.5% additive at a water application rate of 600 l/ha (converted). After the test plants have been kept in the greenhouse under optimum growth conditions for about 3 weeks, the activity of the preparations is rated visually in comparison to untreated controls. For example, 100% activity=the plants have died, 0% activity=like control plants.
# The observed effects on selected crop plants are reported here in comparison to the untreated controls (values in %). The appendices “a”, “b” and “c” give differentiation by dosage used with otherwise the same crop plants tested.
# Viola tricolor (VIOTR) = assay: Pre-emergence herbicidal action against VIOTR; settings: 320 g/ha, Viola tricolor
# How it was run: as §1
# [12] = 80 g/ha, effect in comparison to untreated controls
SMILES,Pre-emergence action against BRSNW in % (Brassica napus (BRSNW) [2]; 80 g/ha) [%],Pre-emergence action against BRSNW in % (Brassica napus (BRSNW) [2]; 320 g/ha) [%],Pre-emergence action against GLXMA in % (Glycine max (GLXMA) [3]; 320 g/ha) [%],Pre-emergence action against ORYSA in % (Oryza sativa (ORYSA) [4]; 80 g/ha) [%],Pre-emergence action against ORYSA in % (Oryza sativa (ORYSA) [4]; 320 g/ha) [%],Pre-emergence action against TRZAS in % ([5]; 80 g/ha) [%],Pre-emergence action against TRZAS in % ([5]; 320 g/ha) [%],Pre-emergence action against ZEAMX in % (Zea mays (ZEAMX) [6]; 80 g/ha) [%],Pre-emergence action against ZEAMX in % (Zea mays (ZEAMX) [6]; 320 g/ha) [%],Post-emergence action against ORYSA in % (Oryza sativa (ORYSA) [7]; [12]) [%],Post-emergence action against TRZAS in % ([8]; 80 g/ha) [%],Post-emergence action against ZEAMX in % (Zea mays (ZEAMX) [9]; 80 g/ha) [%],Post-emergence action against GLXMA in % (Glycine max (GLXMA) [10]; 80 g/ha) [%],Post-emergence action against BRSNW in % (Brassica napus (BRSNW) [11]; 80 g/ha) [%],other results
CCOC(=O)C1CCN(C(=O)COc2nn(-c3ccccn3)c(-c3ccc(F)nc3)c2Br)CC1 [Example I-112],10,10,20,0,10,0,10,0,10,0,0,10,10,10,"Pre-emergence action against VERPE in % [1]: 80%; Post-emergence action against ORYSA in % (Oryza sativa (ORYSA) [7]; 20 g/ha, effect vs untreated controls): 0%; Post-emergence action against TRZAS in % ([8]; 20 g/ha): 0%; Post-emergence action against ZEAMX in % (crop plant compatibility) (Zea mays (ZEAMX) [9]; 20 g/ha, ZEAMX, effect in comparison to untreated controls): 0%; Post-emergence action against GLXMA in % (Glycine max (GLXMA) [10]; 20 g/ha): 0%; Post-emergence action against BRSNW in % (Brassica napus (BRSNW) [11]; 20 g/ha): 0%"
O=C(CSc1nn(-c2ccccn2)c(-c2cncc(F)c2)c1Br)NS(=O)(=O)c1ccccc1 [Example I-200],0,0,20,20,20,0,10,0,0,0,0,0,0,10,"Pre-emergence action against VIOTR in % (Viola tricolor (VIOTR)): 100%; Pre-emergence action against GLXMA in % (Glycine max (GLXMA) [3]; 80 g/ha): 20%; Post-emergence action against ORYSA in % (Oryza sativa (ORYSA) [7]; 320 g/ha, effect in comparison to untreated controls): 0%; Post-emergence action against TRZAS in % ([8]; 320 g/ha): 0%; Post-emergence action against ZEAMX in % (Zea mays (ZEAMX) [9]; 320 g/ha): 0%; Post-emergence action against GLXMA (Glycine max (GLXMA) [10]; 320 g/ha, effect vs untreated controls): 0%; Post-emergence action against BRSNW in % (Brassica napus (BRSNW) [11]; 320 g/ha): 20%"
